According to patent US20170058314A1, “NOVEL METHODOLOGY FOR IDENTIFYING ANTI-PERSISTER ACTIVITY AND ANTIMICROBIAL SUSCEPTIBILITY FOR BORRELIA BURGDORFERI AND OTHER BACTERIA” (priority 2014, published 2017):
Values after ≈ are worked out from the molar mass of the structure shown. Values joined by “and” are separate entries in the source; they are usually repeats but may differ in a detail not shown here. Equal entries are not always repeated.

How the values were obtained:
[1] = tested on: log phase and stationary phase B. burgdorferi culture; assay: Antibiotic exposure assay, SYBR Green I/PI (drugs alone and combinations); conditions: Borreliella burgdorferi, 168 h, read-out: Live Cell % (residual viable B. burgdorferi), ten-day-old stationary phase culture enriched with micro-colonies, 10 μg/mL each drug, 7 days
In short: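 Stationary-phase or round-body B. burgdorferi exposed 7 days at 33 °C to drugs alone or combined at 10 μg/mL each (single-compound screen: 50 μM final). Viability by SYBR Green I/PI, ex 485, em 535/635 nm; percent live from regression of green/red ratio, corrected by direct microscopy counting.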

[2] = tested on: E. coli strains (W3110, UTI89, CFT073, KTE181); assay: Rapid SYBR Green/PI antibiotic susceptibility test; type: cell-based, Escherichia coli; conditions: for percent killed, sensitive strain W3110: others 25 μg/mL
[3] = tested on: stationary phase B. burgdorferi persisters (strain B31); assay: SYBR Green I/PI viability assay (plate reader), FDA-approved drug library screen
[4] = tested on: B. burgdorferi log and stationary phase cultures; assay: epi-fluorescence microscope counting after antibiotic exposure (persister frequency, planktonic forms); type: cell-based, Borrelia burgdorferi
Description: Specimens were examined on a Nikon Eclipse E800 microscope equipped with differential interference contrast (DIC) and epi-fluorescence illumination, and recorded with a Spot slider color camera. Cell proliferation assays were performed by direct counting using a bacterial counting chamber (Hausser Scientific Partnership) and DIC microscopy. SYBR Green I/PI assay was performed to assess the viability of B. burgdorferi. The ratio of live (green) and dead (red) B. burgdorferi was calculated by counting these cells using a bacterial counting chamber and epi-fluorescence microscopy. The three representative images of every sample were captured for quantitative analysis. Image Pro-Plus software was applied for measuring the biomass (fluorescence intensity) of different forms (spirochetes, round body, and microcolony) of B. burgdorferi as previously described (Shopov and Williams, 2000).
To qualitatively determine the effect of antibiotics, 10 μL of each compound from the pre-diluted plate or pre-diluted stock was added to stationary phase B. burgdorferi culture in the 96-well plate. The final volume per well was adjusted to 100 μL at a concentration of 10 μg/mL for each antibiotic. Plates were sealed and placed in a 33° C. incubator for 7 days. The SYBR Green I/PI viability assay was used to assess the live and dead cells after antibiotic exposure as described (Feng, Wang, Shi, et al., 2014). Briefly, 10 μL of SYBR Green I (10,000×stock, Invitrogen) was mixed with 30 μL propidium iodide (PI, 20 mM) into 1.0 mL of sterile dH2O. Then, 10 μL of staining mixture was added to each well and mixed thoroughly. The plates were incubated at room temperature in the dark for 15 minutes followed by plate reading at excitation wavelength at 485 nm and the fluorescence intensity at 535 nm (green emission) and 635 nm (red emission) in microplate reader (HTS 7000 plus Bio Assay Reader, PerkinElmer Inc., USA). With least-square fitting analysis, the regression equation and regression curve of the relationship between percentage of live bacteria and green/red fluorescence ratios was obtained. The regression equation was used to calculate the percentage of live cells in each well of the 96-well plate.
Therefore, the frequency of B. burgdorferi persisters in log phase and stationary phase cultures was assessed using the SYBR Green I/PI viability assay after exposure of the cultures to antimicrobials. E. coli culture was used as a control after exposure to antibiotics to validate the SYBR Green I/PI viability assay for persister frequency assessment.

[5] = tested on: stationary phase B. burgdorferi persisters (strain B31); assay: epifluorescence microscope counting after SYBR Green I/PI staining, FDA drug screen; conditions: Borreliella burgdorferi, 168 h, read-out: Residual viable cells (epifluorescence microscope counting)
[6] = tested on: round body form of B. burgdorferi; assay: SYBR Green I/PI assay on amoxicillin-induced round body form; conditions: for viability at 50 µM: Borreliella burgdorferi, 168 h, read-out: Residual viable cells (SYBR Green I/PI assay); for Ratios of green/red fluorescence, Primary screening / Ratios of green/red fluorescence, Rescreening (first column) / Ratios of green/red fluorescence, Rescreening (second column): round body form, 50 μM, 7 days
[7] = tested on: K. pneumoniae (Isolate 7); assay: Rapid SYBR Green/PI antibiotic susceptibility test, 30 minutes; type: cell-based, Klebsiella pneumoniae; conditions: 25 μg/mL
[8] = tested on: S. aureus strains (Newman, USA300, CA-409, CA-127, NY-315); assay: Rapid SYBR Green/PI antibiotic susceptibility test; type: cell-based, Staphylococcus aureus; conditions: for cut-off (averaged proportion of killed cells) for resistant strains / cut-off (averaged proportion of killed cells) for susceptible strains: 100 μg/mL, 1.5 hours
[9] = tested on: B. burgdorferi (growing, strain B31); assay: MIC determination, standard microdilution method; type: cell-based, Borrelia burgdorferi; conditions: Borreliella burgdorferi; growing B. burgdorferi; read-out: MIC
B. burgdorferi = conditions: after 72 h; Kraiczy et al., 2001; cited from earlier work
M. tuberculosis H37Ra = type: cell-based, Mycobacterium tuberculosis; conditions: pH 5.9
[10] = tested on: stationary phase B. burgdorferi persisters (strain B31); conditions: drug alone; cited from earlier work
E. coli UTI89 persisters = assay: Persister assay (CFU enumeration and SYBR Green/PI); type: cell-based, Escherichia coli; conditions: ampicillin 100, ofloxacin 5, polymycin B 10, gentamicin 20 μg/mL
Description: Stationary phase cultures of E. coli UTI89 were treated with ofloxacin (5 μg/mL) for 4 hours to enrich for persisters, followed by drug exposure with different antibiotics including ampicillin (100 μg/mL), ofloxacin (5 μg/mL), polymycin B (10 μg/mL) and gentamicin (20 μg/mL). The bacterial viability was determined by CFU enumeration and SYBR Green/PI assay as described above.

E. coli W3110 = assay: MIC by broth microdilution (OD600) and SYBR Green/PI; type: cell-based; conditions: Escherichia coli; E. coli W3110, overnight incubation
Text: The Kirby-Bauer disk diffusion assay was used to determine the susceptibility of the various strains to antibiotics. Instructions and also interpretation of zone diameters were made using the established standards as listed in the Clinical and Laboratory Standards Institute (CLSI). Briefly, bacterial cultures were adjusted to a 0.5 McFarland turbidity standard and spread onto Mueller-Hinton agar. Paper Disks were impregnated onto the agar and the antibiotics at concentrations recommended by CLSI were pipetted onto each blank disk and allowed to air dry for 10 minutes. The plates were incubated at 37° C. overnight before the zone of inhibition was measured in millimeters. […]
The staining dye for Staphylococcus aureus, Escherichia coli, Acinetobacter baumanii, and Mycobacterium tuberculosis were made by mixing SYBR Green I to propidium iodide (1:3) in 100 μl distilled H2O. […] The green and red fluorescence intensity was detected using a Synergy H1 microplate reader by Bio Tek Instruments (VT, USA) at excitation wavelength of 485 nm, 538 nm (green emission), and 612 nm (red emission). The percentage of live cells in each sample was determined by a regression equation generated by a standard curve. […] The staining mixture was added to each sample and the green/red fluorescent ratios were measured as described above. […]

S. aureus USA300 = assay: as above; type: cell-based; conditions: Staphylococcus aureus; S. aureus USA300, overnight incubation
[11] = 30 minutes, ampicillin 100 μg/mL
[12] = 50 μM, 7 days, stationary phase
[13] = ampicillin, streptomycin 100 μg/mL, trimethoprim 5 μg/mL

CO/N=C(\C(=O)N[C@@H]1C(=O)N2C(C(=O)O)=C(CSc3nc(=O)c(=O)[nH]n3C)CS[C@H]12)c1csc(N)n1 [Ceftriaxone]
viability at 10 µg/mL [1]: 68%
percent killed, sensitive strain W3110 [2, 11]: 37%
Ratio of Green/Red fluorescence, Primary screening [3, 12]: 6.74
Ratio of Green/Red fluorescence, Rescreening (first column) [3, 12]: 6.89
Ratio of Green/Red fluorescence, Rescreening (second column) [3, 12]: 6.78
viability at 50 µM ([3]; Borreliella burgdorferi, 168 h, read-out: Residual viable cells (regression equation, SYBR Green I/PI assay)): 44%
persister frequency (percentage of live cells after antibiotic treatment, in brackets) ([4]; 3-day log phase culture): (5.8%)
persister frequency (in brackets) ([4]; 7-day stationary phase culture): (16%)
persister frequency (in brackets) ([4]; 10-day stationary phase culture): (~25%)
viability at 50 µM [5]: 50%
viability at 50 µM [6]: 36%
Ratios of green/red fluorescence, Primary screening [6]: 6.37
Ratios of green/red fluorescence, Rescreening (first column) [6]: 6.29
Ratios of green/red fluorescence, Rescreening (second column) [6]: 6.39
killing of resistant K. pneumoniae strain [7]: not killed at all

O=C(O)c1cn(C2CC2)c2cc(N3CCNCC3)c(F)cc2c1=O [Ciprofloxacin]
cut-off (averaged proportion of killed cells) for resistant strains [8]: −0.1
cut-off (averaged proportion of killed cells) for susceptible strains [8]: −0.3
percent killed, resistant strain CA-409 ([8]; 30 minutes, kanamycin 25, ciprofloxacin 50, gentamicin 400 μg/mL): 21%
percent killed, sensitive Newman strain ([8]; 30 minutes, kanamycin 25, erythromycin 400, ciprofloxacin 50, gentamicin 400 μg/mL): 58%
MIC [9]: 0.8 to 1.6 µg/mL (≈ 2.41 to 4.83 µM)
MBC (B. burgdorferi): 16 μg/mL and 41.5 μM

NC(=O)c1cnccn1 [PZA, pyrazinamide]
susceptibility of parent strain H37Ra (M. tuberculosis H37Ra): susceptible

Cc1ccc(C(C)C)c(O)c1 [Thymol]
residual live cell percentage, stationary phase, previous drug screen [10]: 82%
viability at 50 µM [6]: 34%
Ratios of green/red fluorescence, Primary screening [6]: 6.15
Ratios of green/red fluorescence, Rescreening (first column) [6]: 6.36
Ratios of green/red fluorescence, Rescreening (second column) [6]: 6.36

CC1(C)S[C@@H]2[C@H](NC(=O)[C@H](N)c3ccccc3)C(=O)N2[C@H]1C(=O)O [ampicillin]
level of persisters over 7 days (words; CFU and SYBR Green/PI) (E. coli UTI89 persisters): stayed constant
percent killed, sensitive strain UTI89 [2, 11]: 23%
percent killed, sensitive strain W3110 [2, 11]: 38%
percent killed, resistant strain KTE181 ([2]; 30 minutes, ampicillin 100, trimethoprim 25, streptomycin 25 μg/mL): 1%
cut-off (averaged proportion of killed cells) for resistant strains [2, 13]: -0.1
cut-off (averaged proportion of killed cells) for susceptible strains [2, 13]: −0.5
MIC (E. coli W3110): 8 µg/mL

CO/N=C(\C(=O)N[C@@H]1C(=O)N2C(C(=O)O)=C(COC(C)=O)CS[C@H]12)c1csc(N)n1 [cefotaxime]
percent killed, sensitive strain W3110 [2, 11]: 24%
killing of resistant K. pneumoniae strain [7]: not killed at all

O=C(N[C@H](CO)[C@H](O)c1ccc([N+](=O)[O-])cc1)C(Cl)Cl [chloramphenicol]
cut-off (averaged proportion of killed cells) for resistant strains [8]: −0.1
cut-off (averaged proportion of killed cells) for susceptible strains [8]: −0.5
MIC (S. aureus USA300): 4 µg/mL (≈ 12.4 µM)
